The record followed here is patent US20110212909A1, “Use of Ginsenoside Compound K in the Preparation of a Medicament for the Prevention and Treatment of Atherosclerosis” (priority 2008, published 2011).

For assay [1], the system named is hs-CRP. Description: Serum hs-CRP by double antibody sandwich ELISA in apo E−/− mice. It is filed as in vivo, mouse. The note with it: 15 weeks. How it is done:
(§1) 80 healthy clean grade C57BL/6J apo E^−/^− mice of 10 weeks old, wherein male and female mice were fifty-fifty, weight 20-22 g, were breed and divided into individual cage in sterile laminar flow rack, allowing mice to freely drink water and get food. Mice were raised for 30 weeks by “Western Diet” (routine mouse feed +0.15% cholesterol +21% fat) high fat feed (^60cobalt sterilization radiation treatment), with raising conditions being SPF grade, room temperature maintained at 24° C., relative humidity of 50%, and lighting time of 7: 30-19: 30. Animal house was sterilized by ultraviolet lamp once every two days, in order to maintain sterile environment of laminar flow rack (establishment of animal model of atherosclerosis refers to reference: Barish G D, Atkins A R, Downes M, Olson P, Chong L W, Nelson M, Zou Y H, Hwang H S, Kang H J, Curtiss L, Evans R M, Lee C H. PPARδ regulates multiple proinflammatory pathways to suppress atherosclerosis. Proc Natl Acad Sci, 2008, 105 (11): 4271-4276.).
5 mice of apo E^−/^− mice raised for 15 weeks were randomly selected and sacrificed, root of aorta of which was taken, and replication condition in AS model was observed by HE staining. The remaining mice were randomly divided into 5 groups as follows (n=15): […]
Above drugs were firstly solved in DMSO, then suspended in 0.5% carboxymethylcellulose solution, mixed homogeneously, and then were administered via gavage, once a day. Mice were weighted once a week, and ingestion amounts were recorded, and drug doses were adjusted according to weight, interfering for 15 weeks. […]
• blood fat assay: TC, TG, HDL-C, and LDL-C concentrations in serum were determined by applying Olympus Au2700 fully automatic biochemical appearance. • serum inflammatory markers assay: hs-CRP and sCD40L concentrations were determined by applying double antibody sandwich ELISA, in accordance with ELISA kit operating instruction (hs-CRP ELISA kit bought from Herrenberg company, Germany; sCD40L ELISA kit bought from Bender Medsystems company, Austria). • real-time quantitative PCR analysis was carried out on expression of CD36, perilipin, ABCA1, LXRα, MMP-9 and NF-κ B mRNA in apo E^−/^− mouse aorta (a reference method: Zhang Yiguan, Li Xiaohui, Fan Jishan, Zhang Haigang, Li Shuhui, Liao Wenqiang, Pang Yan, Jia Yi. […] 2007, 27 (11): 1601-1607)0 • morphology index image analysis: When slices were HE stained, under X40 fold ordinary light microscope, artery atherosclerosis plaque area of each incisal surface was determined by “Image Pro Plus 5.0” image analysis software. […]
On the technique in general: ELISA stands for enzyme-linked immunosorbent assay.

Assay [2] has as its system AS plaque in apo E−/− mouse aorta. Briefly: Morphology index image analysis of AS plaque at aortic root (HE and MASSON staining). It counts as in vivo. The note with it: apo E−/− mice, 15 weeks. Here is the method: as §1
5 mice of apo E^−/^− mice raised for 15 weeks were randomly selected and sacrificed, root of aorta of which was taken, and replication condition in AS model was observed by HE staining. The remaining mice were randomly divided into 5 groups as follows (n=15):
A. model group: vehicle; B. ginsenoside compound K low dose group: ginsenoside compound K 12.5 mg/kg/day; C. ginsenoside compound K middle dose group: ginsenoside compound K 25.0 mg/kg/day; D. ginsenoside compound K high dose group: ginsenoside compound K 50.0 mg/kg/day; E. simvastatin control group: simvastatin 10.0 mg/kg/day.
Above drugs were firstly solved in DMSO, then suspended in 0.5% carboxymethylcellulose solution, mixed homogeneously, and then were administered via gavage, once a day. Mice were weighted once a week, and ingestion amounts were recorded, and drug doses were adjusted according to weight, interfering for 15 weeks. All the animal were sacrificed in 30th week.
Tissues of apo E^−/^− mice were sliced for AS plaque pathology: blood of eye sockets venous plexus of apo E−/− mice was sampled before the mice was sacrificed by cervical dislocation, and aorta was fixed by converse infusion of physiological saline comprising 4% paraformaldehyde into left ventricle, and then whole aorta was cut off from root of aorta to terminal end of abdomen aorta. Root of aorta was taken, and embedded routinely by paraffin, and slices of thickness of 5 μm were continuously cut off from root of aorta, and were subjected separately to HE staining, and MASSON staining, and then were utilized for AS plaque morphological index analysis of aortic valve cross section.
Pathological staining: […]sequent 2 pieces of slices were picked up from each incisal surface of sequent paraffin slices of aorta root per mouse, and were separately subjected to HE staining, and MASSON staining, and were observed under light microscope. […]remaining aorta was stained by Sudan IV, and was observed under light microscope.
• blood fat assay: TC, TG, HDL-C, and LDL-C concentrations in serum were determined by applying Olympus Au2700 fully automatic biochemical appearance. • serum inflammatory markers assay: hs-CRP and sCD40L concentrations were determined by applying double antibody sandwich ELISA, in accordance with ELISA kit operating instruction (hs-CRP ELISA kit bought from Herrenberg company, Germany; sCD40L ELISA kit bought from Bender Medsystems company, Austria). • real-time quantitative PCR analysis was carried out on expression of CD36, perilipin, ABCA1, LXRα, MMP-9 and NF-κ B mRNA in apo E^−/^− mouse aorta (a reference method: Zhang Yiguan, Li Xiaohui, Fan Jishan, Zhang Haigang, Li Shuhui, Liao Wenqiang, Pang Yan, Jia Yi. Total panax notoginsenosides suppress atherosclerosis formation in rats by means of antiinflammatory and blood fat regulating action. Progress in Modern Biomedicine. […]

[3] abbreviates: C-K high dose 50.0 mg/kg/day gavage.
[4] abbreviates: C-K middle dose 25.0 mg/kg/day gavage.
Where [5] appears, read: simvastatin 10.0 mg/kg/day gavage.

Molecules are shown by their SMILES. Marks after values point to notes of the source that are not given here.

`CC(C)=CCC[C@](C)(OC1OC(CO)C(O)C(O)C1O)C1CC[C@]2(C)C1[C@H](O)CC1[C@@]3(C)CC[C@H](O)C(C)(C)C3CC[C@]12C` (stereo partly drawn) [C-K, 20-O-β-D-glucopyranosyl 20-(S)-protopanaxadiol]: the “hs-CRP concentration in serum” value is recorded as 6.14 ± 0.29^a ng/mL in assay [1] (setting [3]); 6.68 ± 0.54^a ng/mL in assay [1] (C-K low dose 12.5 mg/kg/day gavage, model 8.13 ± 0.51); 6.49 ± 0.36^a ng/mL in assay [1] (setting [4]). Moreover, the “CA (aortic root collagen area)” value is listed as 0.69 ± 0.13^b mm^2 in assay [2] (setting [3]); 0.56 ± 0.14^b mm^2 in assay [2] (C-K low dose 12.5 mg/kg/day gavage, model 0.39 ± 0.13); 0.62 ± 0.09^b mm^2 in assay [2] (setting [4]). Moreover, the “CA/CVA (corrected collagen area)” value in assay [2] (setting [3]) is given as 42.40 ± 6.74^b %; in assay [2] (C-K low dose 12.5 mg/kg/day gavage, model 22.60 ± 5.41) it was 33.33 ± 4.37^b %; in assay [2] (setting [4]) it was 36.08 ± 4.82^b %. Also, the “CVA (vessel cross section area)” value in assay [2] (setting [3]) is listed as 1.62 ± 0.12 mm^2; in assay [2] (C-K low dose 12.5 mg/kg/day gavage, model 1.70 ± 0.19) it was 1.68 ± 0.16 mm^2; in assay [2] (setting [4]), 1.71 ± 0.14 mm^2. Also, the “LCA (lipid core area)” value in assay [2] (setting [3]) is on record as 0.21 ± 0.03^b mm^2; in assay [2] (C-K low dose 12.5 mg/kg/day gavage, model 0.44 ± 0.05) it was 0.32 ± 0.05^b mm^2; in assay [2] (setting [4]), 0.29 ± 0.05^b mm^2. Also, the “LCA/PA (corrected lipid core area)” value in assay [2] (setting [3]) was 40.01 ± 1.94^b %; in assay [2] (C-K low dose 12.5 mg/kg/day gavage, model 48.28 ± 2.71), 41.03 ± 1.32^b %; in assay [2] (setting [4]), 40.33 ± 1.18^b %. Also, the “PA (plaque area)” value in assay [2] (setting [3]) was 0.52 ± 0.10^b mm^2; in assay [2] (C-K low dose 12.5 mg/kg/day gavage, model 0.90 ± 0.12) it was 0.78 ± 0.13^a mm^2; in assay [2] (setting [4]) it was 0.72 ± 0.12^a mm^2. Further, the “PA/CVA (corrected plaque area)” value in assay [2] (setting [3]) is 32.29 ± 6.29^b %; in assay [2] (C-K low dose 12.5 mg/kg/day gavage, model 53.82 ± 10.02), 46.43 ± 7.38^a %; in assay [2] (setting [4]), 42.26 ± 8.35^a %. Moreover, the “mFCT (minimal fibrous cap thickness)” value was 30.65 ± 1.37^b μm in assay [2] (setting [3]); 28.48 ± 1.89^b μm in assay [2] (C-K low dose 12.5 mg/kg/day gavage, model 20.40 ± 3.31); 30.44 ± 1.75^b μm in assay [2] (setting [4]).

With `CCC(C)(C)C(=O)O[C@H]1C[C@@H](C)C=C2C=C[C@H](C)[C@H](CC[C@@H]3C[C@@H](O)CC(=O)O3)[C@H]21` [simvastatin, reference compound], the “hs-CRP concentration in serum” value in assay [1] (setting [5]) is 4.57 ± 0.68^b ng/mL. In assay [2] (setting [5]), the “CA (aortic root collagen area)” value was 0.57 ± 0.08^a mm^2, the “CA/CVA (corrected collagen area)” value was 34.73 ± 4.49^b %, the “CVA (vessel cross section area)” value was 1.65 ± 0.11 mm^2 and the “LCA (lipid core area)” value is listed as 0.32 ± 0.04^b mm^2. Besides, in assay [2] (setting [5]), the “LCA/PA (corrected lipid core area)” value is recorded as 43.39 ± 4.01^b %, the “PA (plaque area)” value is reported as 0.74 ± 0.17 mm^2, the “PA/CVA (corrected plaque area)” value was 44.70 ± 8.44^a % and the “mFCT (minimal fibrous cap thickness)” value is listed as 27.72 ± 2.30^b μm.
